Experimental data: US9334269B2, “Carboxamides as inhibitors of voltage-gated sodium channels” (AMGEN INC., priority 2010, dated 2016)

Target: T1, human Nav1.7 (hNav1.7) (Homo sapiens, UniProt Q15858)
T1 construct: expressed in transfected cells
Assay: hNav1.7 whole-cell patch-clamp electrophysiology (automated PatchXpress 7000A or manual) in stably expressing 293 cells
Format: cell-based
Method: Compounds were tested on human Nav1.7 (hNav1.7) expressed stably in 293 cells, which have no endogenous sodium channels. Two forms of whole-cell patch-clamp assays were used. In both, peak current through Nav1.7 was evoked by a depolarizing voltage pulse, and currents were monitored as a function of time in response to exposure to several different concentrations of drug. Automated electrophysiology uses the PatchXpress 7000A system. Up to sixteen cells at a time were voltage-clamped in parallel, and the steady-state voltage dependence of inactivation was determined experimentally for each cell. For each cell, fractional inactivation was set at 20%, and peak current through Nav1.7 as a function of time was measured in response to increasing concentrations of test compound. Manual electrophysiology refers to conventional whole-cell patch-clamping (Hamill et al., 1981). After formation of the whole-cell clamp, cells were lifted off the bottom of the dish with the patch pipette and positioned directly in front of an array of glass microperfusion tubes each with internal diameter about 250 microns, with individual compound concentrations flowing from each tube. Current as a function of time in response to increasing drug concentrations was measured with Nav1.7 fully in the resting state (holding voltage set to −140 mV) and on the same cells with the holding voltage set to produce about 20% inactivation. Compounds were not applied for a prespecified time, but for as long as required to achieve a stable level of block. For both forms of electrophysiology, offline analysis was used to correct for rundown of channel current and to determine percent inhibition as a function of drug concentration. IC50 were determined by fitting to the Hill equation.

[1] = human Nav1.7 stably expressed in 293 cells, whole-cell patch clamp, average IC50 from Hill fit

T1 sequence (Q15858 whole entry): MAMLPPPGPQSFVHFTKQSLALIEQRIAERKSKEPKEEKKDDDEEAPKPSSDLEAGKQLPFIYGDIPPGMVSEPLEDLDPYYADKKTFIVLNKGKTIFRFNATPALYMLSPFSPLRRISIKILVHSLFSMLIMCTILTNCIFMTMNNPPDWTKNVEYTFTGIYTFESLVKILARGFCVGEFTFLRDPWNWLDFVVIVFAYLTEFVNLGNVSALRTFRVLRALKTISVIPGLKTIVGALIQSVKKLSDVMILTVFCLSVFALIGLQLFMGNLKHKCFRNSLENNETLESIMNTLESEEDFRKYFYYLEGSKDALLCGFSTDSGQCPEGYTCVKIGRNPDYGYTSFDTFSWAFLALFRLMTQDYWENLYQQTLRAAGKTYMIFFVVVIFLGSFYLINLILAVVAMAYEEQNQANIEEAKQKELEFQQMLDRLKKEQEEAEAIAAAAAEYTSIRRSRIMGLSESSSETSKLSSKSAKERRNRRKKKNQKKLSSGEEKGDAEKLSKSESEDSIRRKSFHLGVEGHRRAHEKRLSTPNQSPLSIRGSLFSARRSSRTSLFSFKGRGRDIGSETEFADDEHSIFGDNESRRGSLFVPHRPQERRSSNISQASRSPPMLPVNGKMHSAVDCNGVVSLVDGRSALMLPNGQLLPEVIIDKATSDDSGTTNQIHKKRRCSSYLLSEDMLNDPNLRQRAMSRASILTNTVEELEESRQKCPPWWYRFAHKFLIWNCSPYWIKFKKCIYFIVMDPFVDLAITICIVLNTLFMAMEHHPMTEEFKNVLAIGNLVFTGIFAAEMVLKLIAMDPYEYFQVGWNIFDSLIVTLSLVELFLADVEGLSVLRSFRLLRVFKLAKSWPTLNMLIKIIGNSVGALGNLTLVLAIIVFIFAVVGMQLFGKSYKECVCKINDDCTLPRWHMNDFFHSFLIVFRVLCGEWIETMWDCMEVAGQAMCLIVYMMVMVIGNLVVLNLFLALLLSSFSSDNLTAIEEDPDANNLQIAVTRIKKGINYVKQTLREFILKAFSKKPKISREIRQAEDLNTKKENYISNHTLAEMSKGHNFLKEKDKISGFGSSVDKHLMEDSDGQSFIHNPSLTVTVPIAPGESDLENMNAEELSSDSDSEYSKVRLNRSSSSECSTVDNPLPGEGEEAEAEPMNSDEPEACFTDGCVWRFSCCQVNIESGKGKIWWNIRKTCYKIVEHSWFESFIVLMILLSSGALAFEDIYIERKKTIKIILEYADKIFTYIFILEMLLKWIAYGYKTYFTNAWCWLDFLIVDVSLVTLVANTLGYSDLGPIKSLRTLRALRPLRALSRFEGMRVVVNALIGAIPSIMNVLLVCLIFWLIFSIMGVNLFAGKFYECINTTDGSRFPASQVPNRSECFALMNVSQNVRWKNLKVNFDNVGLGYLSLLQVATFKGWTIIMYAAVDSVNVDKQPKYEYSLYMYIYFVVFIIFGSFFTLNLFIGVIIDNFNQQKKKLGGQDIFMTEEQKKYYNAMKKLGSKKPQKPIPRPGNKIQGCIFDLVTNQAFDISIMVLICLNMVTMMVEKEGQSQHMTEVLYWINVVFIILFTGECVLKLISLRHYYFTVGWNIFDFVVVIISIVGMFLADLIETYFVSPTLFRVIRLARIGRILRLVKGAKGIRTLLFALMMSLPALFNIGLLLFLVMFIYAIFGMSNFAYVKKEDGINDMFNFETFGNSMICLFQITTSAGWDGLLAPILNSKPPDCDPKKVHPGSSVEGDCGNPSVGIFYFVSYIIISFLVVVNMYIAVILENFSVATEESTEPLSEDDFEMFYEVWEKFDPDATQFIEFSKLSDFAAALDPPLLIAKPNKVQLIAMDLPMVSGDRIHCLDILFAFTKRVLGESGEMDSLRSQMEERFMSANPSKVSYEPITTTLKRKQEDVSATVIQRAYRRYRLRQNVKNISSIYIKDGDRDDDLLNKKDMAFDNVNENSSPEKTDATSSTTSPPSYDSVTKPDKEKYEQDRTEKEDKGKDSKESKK

| Compound | IC50 (average IC50, human Nav1.7) [µM] | further results |
| --- | --- | --- |
| CNC(=O)c1cc(Nc2ncnc(N3CC(Oc4ccc(F)c(Cl)c4)C3)n2)ccc1Cl [Example 97] | 1.4 | – |
| CNC(=O)c1cc(F)cc(Nc2ncnc(N3CC(COc4ccc(C(F)(F)F)cc4)C3)n2)c1 [Example 112] | 1.78 | – |
| CNC(=O)c1cccc(Nc2ccnc(NCCCOc3ccc(OC(F)(F)F)cc3)n2)c1 [Example AC, N-methyl-3-((2-((3-(4-(trifluoromethoxy)phenoxy)propyl)amino)-4-pyrimidinyl)amino)benzamide] | – | IC50 [1]: 1.17 µM |
| CNC(=O)c1cccc(Nc2ncnc(N3CCc4cc(OCCOC)ccc4C3)n2)c1 [Example 233] | 9.87 | – |
| CNC(=O)c1cccc(Nc2ncnc(NCCCOc3cccc(F)c3)n2)c1 [Example 260] | 17.6 | – |
| CNC(=O)c1ccc(Cl)c(Nc2ncnc(N3CC(Oc4ccc(F)cc4)C3)n2)c1 [Example 129] | 2.37 | – |
| CNC(=O)c1cccc(Nc2ncnc(N3CC(Oc4ccccc4)C3)n2)c1 [Example 33] | 0.45 | – |
| CNC(=O)c1cccc(Nc2ncnc(N3CC(Oc4ccc(C(F)(F)F)cc4Cl)C3)n2)c1 [Example 194] | 5.97 | – |
| COCCNC(=O)c1cccc(Nc2ncnc(N3CC(Oc4ccc(Cl)cc4)C3)n2)c1 [Example 28] | 0.4 | – |
| CNC(=O)c1cccc(Nc2ncnc(N3CC(Oc4cccc(F)c4)C3)n2)c1 [Example 86] | 1.2 | – |
| CNC(=O)c1cccc(Nc2ncnc(N3CCc4cc(C(F)(F)F)ccc4C3)n2)c1 [Example 216] | 8.6 | – |
| CNC(=O)c1cccc(Nc2ncnc(NCCCOc3ccc(C(F)(F)F)cc3)n2)c1 [Example 169] | 4.25 | – |
| NC(=O)c1cccc(Nc2ncnc(N3CCc4ccccc4C3)n2)c1 [Example 235] | 10.3 | – |
| CNC(=O)c1cccc(Nc2ncnc(N3CCC(C(=O)c4ccc(Cl)cc4)CC3)n2)c1 [Example 36] | 0.49 | – |
| CNC(=O)c1cc(Nc2cccc(N3CC(Oc4ccc(Cl)cc4F)C3)n2)ccc1F [Example X, 5-((6-(3-(4-chloro-2-fluorophenoxy)-1-azetidinyl)-2-pyridinyl)amino)-2-fluoro-N-methylbenzamide] | – | IC50 [1]: 4.46 µM |
| CNC(=O)c1cccc(Nc2ncnc(N3CC(Oc4ccccc4C(F)(F)F)C3)n2)c1 [Example 141] | 2.79 | – |
| CNC(=O)c1cccc(Nc2ncnc(N3CC(Oc4ccccc4OC)C3)n2)c1 [Example 204] | 7.42 | – |
| CNC(=O)c1cccc(Nc2ncnc(N3CC(C)(COc4ccccc4)C3)n2)c1 [Example 273] | – | IC50 (average IC50): 22.1 µM |
| CNC(=O)c1cccc(Nc2ncnc(N3CC(COc4ccccc4F)C3)n2)c1 [Example 251] | 13.8 | – |
| CNC(=O)c1cccc(Nc2ncnc(N3CCCN(c4ncc(C(F)(F)F)cc4Cl)CC3)n2)c1 [Example 107] | 1.61 | – |
| CNC(=O)c1cccc(Nc2ncnc(N3CCN(c4cccc(C)c4C)CC3)n2)c1 [Example 81] | 1.03 | – |
| CNC(=O)c1cccc(Nc2ncnc(N3CCC(OCc4ccc(OC(F)(F)F)cc4)CC3)n2)c1 [Example 131] | 2.49 | – |
| CNC(=O)c1cccc(Nc2ncnc(N3CCC(c4ccc(C#N)c(C(F)(F)F)c4)CC3)n2)c1 [Example 215] | 8.59 | – |

| Compound | IC50 (average IC50, human Nav1.7) [µM] | further results |
| --- | --- | --- |
| CNC(=O)c1cccc(Nc2ncnc(N3CCC(OCc4ccc(C(F)(F)F)cc4)CC3)n2)c1 [Example 150] | 3.03 | – |
| CNC(=O)c1cccc(Nc2nccc(N3CC(Oc4ccc(F)c(F)c4)C3)n2)c1 [Example E, 3-((4-(3-(3,4-difluorophenoxy)-1-azetidinyl)-2-pyrimidinyl)amino)-N-methylbenzamide] | – | IC50 [1]: 1.6 µM |
| CNC(=O)c1cccc(Nc2ncnc(N3CCC(Oc4ccccc4)CC3)n2)c1 [Example 45] | 0.63 | – |
| CNC(=O)c1cccc(Nc2ncnc(N3CCCC(Oc4ccccc4Cl)C3)n2)c1 (centres unmarked) [Example 212] | 8.31 | – |
| CNC(=O)c1cccc(Nc2ncnc(N3CCN(c4ccccc4OC(F)(F)F)CC3)n2)c1 [Example 172] | 4.45 | – |
| CNC(=O)c1cccc(Nc2ncnc(N3CC(COc4cccc(OC)c4)C3)n2)c1 [Example 244] | 12 | – |
| CNC(=O)c1cccc(Nc2nccc(N3CC(Oc4ccc(Cl)c(C)c4)C3)n2)c1 [Example 19] | 0.31 | – |
| CNC(=O)c1cccc(Nc2ncnc(N3CCN(c4ccc(F)c(Cl)c4)CC3)n2)c1 [Example 271] | – | IC50 (average IC50): 21.4 µM |
| CNC(=O)c1cccc(Nc2ncnc(N3CCC(Oc4ccccn4)CC3)n2)c1 [Example 175] | 4.63 | – |
| CNC(=O)c1cccc(Nc2ccnc(N3CC(Oc4ccc(Cl)cc4F)C3)n2)c1 [Example AJ, 3-((2-(3-(4-chloro-2-fluorophenoxy)-1-azetidinyl)-4-pyrimidinyl)amino)-N-methylbenzamide] | – | IC50 [1]: 2.26 µM |
| CNC(=O)c1cccc(Nc2ncnc(N3CCc4cc(C#N)ccc4C3)n2)c1 [Example 299] | – | IC50 (average IC50): > 30 µM |
| C#Cc1cccc(OC2CN(c3ncnc(Nc4cccc(C(=O)NC)c4)n3)C2)c1 [Example 78] | 0.99 | – |
| CNC(=O)c1cccc(Nc2nccc(N3CC(Oc4ccc(OC)cc4)C3)n2)c1 [Example 31] | 0.43 | – |
| CNC(=O)c1cccc(Nc2ncnc(N3CCN(c4ccccc4)CC3)n2)c1 [Example 115] | 1.87 | – |
| CNC(=O)c1cccc(Nc2ncc(F)c(N3CC(Oc4ccc(F)cc4)C3)n2)c1 [Example 285] | – | IC50 (average IC50): > 30 µM |
| CNC(=O)c1cccc(Nc2ncnc(N3CCC(Oc4ccc(OC(F)(F)F)c(F)c4)CC3)n2)c1 [Example 68] | 0.86 | – |
| CNC(=O)c1cccc(Nc2ncnc(N3CCC(Cc4ccccc4)CC3)n2)c1 [Example 230] | 9.5 | – |
| CCN1C(=O)C2(CCN(c3ncnc(Nc4cccc(C(=O)NC)c4)n3)CC2)c2ccccc21 [Example 290] | – | IC50 (average IC50): > 30 µM |
| CNC(=O)c1cc(Nc2ncnc(N3CC(Oc4ccc(Cl)cc4)C3)n2)ccc1Cl [Example 162] | 3.69 | – |
| CNC(=O)c1cccc(Nc2ncnc(N3CCC(Oc4ccc(Cl)cc4)CC3)n2)c1 [Example 145] | 2.9 | – |
| CNC(=O)c1cccc(Nc2ncnc(N3CC(Oc4cccc(C(F)(F)F)c4)C3)n2)c1 [Example 62] | 0.82 | – |
| CNC(=O)c1cccc(Nc2ncnc(N3CC(Oc4cccc(Cl)c4Cl)C3)n2)c1 [Example 104] | 1.57 | – |
| CNC(=O)c1cc(Nc2ncnc(N3CC(COc4ccc(C(F)(F)F)cc4)C3)n2)ccc1Cl [Example 96] | 1.39 | – |

| Compound | IC50 (average IC50, human Nav1.7) [µM] | further results |
| --- | --- | --- |
| CNC(=O)c1cccc(Nc2ncnc(N3CC=C(c4ccc(C#N)cc4)CC3)n2)c1 [Example 99] | 1.43 | – |
| CNC(=O)c1cccc(Nc2ncnc(N3CC(COc4ccc5ccccc5c4)C3)n2)c1 [Example 234] | 10 | – |
| CNC(=O)c1cccc(Nc2ncnc(N3CCC(Oc4cccc(OC(F)(F)F)c4)CC3)n2)c1 [Example 119] | 2.07 | – |
| CNC(=O)c1cccc(Nc2ncnc(N3CC(COc4ccc(Cl)c5cccnc45)C3)n2)c1 [Example 255] | 16 | – |
| CNC(=O)c1cccc(Nc2ncnc(N3CC(Oc4cc(Cl)cc(Cl)c4)C3)n2)c1 [Example 224] | 9.29 | – |
| CNC(=O)c1cccc(Nc2ncnc(N3CC(Oc4ccc(F)cc4)C3)n2)c1F [Example 270] | – | IC50 (average IC50): 21.1 µM |
| CNC(=O)c1cccc(Nc2ncnc(N3CCc4c(F)cccc4C3)n2)c1 [Example 225] | 9.31 | – |
| CNC(=O)c1cccc(Nc2ncnc(N3CCN(c4ccc(C)cc4)CC3)n2)c1 [Example 34] | 0.47 | – |
| CNC(=O)c1cccc(Nc2ncnc(N3CCC(Oc4ccc(F)c(OC(F)(F)F)c4)CC3)n2)c1 [Example 193] | 5.79 | – |
| CNC(=O)c1cccc(Nc2ncnc(N3CCc4cc(C5CC5)ccc4C3)n2)c1 [Example 92] | 1.29 | – |
| CNC(=O)c1cccc(Nc2ncnc(N3CCC(OCc4cccc(OC(F)(F)F)c4)CC3)n2)c1 [Example 277] | – | IC50 (average IC50): 25.4 µM |
| Cc1ccc(N2CCN(c3ncnc(Nc4ccc(F)c(C(N)=O)c4)n3)CC2)cc1C [Example 295] | – | IC50 (average IC50): > 30 µM |
| CNC(=O)c1cccc(Nc2ncnc(NCc3nc(-c4ccccc4)no3)n2)c1 [Example 254] | 15.7 | – |
| CNC(=O)c1cccc(Nc2nccc(N3CC(Oc4ccc(F)cc4F)C3)n2)c1 [Example 125] | 2.16 | – |
| CNC(=O)c1cc(Nc2ncnc(N3CC(Oc4ccc(Cl)cc4F)C3)n2)ccc1Cl [Example 79] | 1 | – |
| CNC(=O)c1cccc(Nc2ncnc(N3CC(Oc4cccc(OC(F)(F)F)c4)C3)n2)c1 [Example 111] | 1.69 | – |
| CNC(=O)c1ccc(C)c(Nc2ncnc(N3CC(Oc4ccc(F)cc4)C3)n2)c1 [Example 160] | 3.65 | – |
| CNC(=O)c1cccc(Nc2ncnc(N3CC=C(c4csc(-c5ccccc5)n4)CC3)n2)c1 [Example 46] | 0.63 | – |
| CNC(=O)c1cccc(Nc2ncnc(N3CC(Oc4ccc(OC)cc4)C3)n2)c1 [Example 87] | 1.23 | – |
| CNC(=O)c1cccc(Nc2nccc(N3CC(COc4ccc(Cl)cc4)C3)n2)c1 [Example O, 3-((4-(3-((4-chlorophenoxy)methyl)-1-azetidinyl)-2-pyrimidinyl)amino)-N-methylbenzamide] | – | IC50 [1]: 2.55 µM |
| CNC(=O)c1cc(Cl)cc(Nc2ncnc(N3CC(Oc4ccc(F)cc4)C3)n2)c1 [Example 262] | 17.8 | – |
| CNC(=O)c1cc(F)cc(Nc2ncnc(N3CC(Oc4ccc(F)cc4)C3)n2)c1 [Example 98] | 1.41 | – |
